Evaluation, Protective value and melting point data for 16 compounds are collected here from patent US8003675B2 (priority 2006, dated 2011).

SMILES strings stand for the structures.

The term melting point denotes the temperature of the solid-liquid transition.

Data set [1] deals with Colletotrichum orbiculare. As to the kind of experiment: Test for preventive effect for cucumber anthracnose. Conditions: cucumber (Sagamihanjiro), soil drench 10 ml at 1 ppm, inoculated 7 days later, lesions counted 7 days later. The format is in vivo. As for the experimental part: Four cucumber seeds (variety: Sagamihanjiro) were sowed in a plastic cup of 5.5 cm in diameter, at a depth of 2 cm, and were grown in a greenhouse for 7 days. One of wettable powders prepared according to Example 5 was diluted with water so that the concentration of active ingredient became a given level. 10 ml of the dilution was poured into the soil at the root of young cucumber seedlings having cotyledons. 7 days later, a conidia suspension (10^5 to 10^6/ml) of Colletotrichum orbiculare which had been cultured in a PDA plate medium, was uniformly inoculated to the cucumber plant by hand spraying. The cup was allowed to stand, for infection, in a moist chamber of 25° C. for 24 hours. Then, the cup was allowed to stand on a basin in a glass greenhouse and, 7 day later, the number of lesions of all cotyledons in pot was examined. A protective value was calculated from the above expression 1 and evaluated according to the standard of Table 12.
Using the above-shown comparative compound, a wettable powder was prepared according to Example 5. A protective value thereof was calculated in the same manner as in the above Test Example.

Another data set deals with Pyricularia oryzae. It counts as in vivo. Conditions: paddy rice (Aichi Asahi), submerged application, 10 g a.i./10 a, inoculated 10 days after treatment, lesions counted 6 days after inoculation.
The next data set concerns Stagonospora nodorum. As to the kind of experiment: Test for preventive effect on wheat glume blotch. It counts as in vivo. The following applies: wheat (Nohrin No. 61), foliar spray 500 ppm, examined 12 days after inoculation. The protocol: Disease development degree=[(n0×0+n1×1+n2×2+n3×3+n4×4)/4×N]×100 [Expression 2]
n4: number of leaves of disease development degree 4 Protective value=[1−(disease development degree in treated plants)/(disease development degree in untreated plants)]×100 [Expression 3]
10 wheat seeds (variety: Nohrin No. 61) were sowed in a plastic cup of 5.5 cm in diameter and were grown in a greenhouse for 7 days. One of wettable powders prepared in accordance with Example 5 was diluted with water so that the concentration of active ingredient became 500 ppm, a spreader (brand name: KUMITEN) was added for the dilution factor to be 3,000 times, and a sufficient amount of the resulting solution was sprayed onto the leaves of wheat (1.5- to 2-leaf stage) using a spray gun. After air-drying, a suspension of the pycniospores of Stagonospora nodorum was sprayed for inoculation. Immediately thereafter, the wheat leaves were transferred into a moist chamber of 25° C. and allowed to stand under a bright condition for 48 hours for infection. Then, the wheat leaves were transferred into the greenhouse and, 12 days after the inoculation, the disease development index of each first leaf was examined according to the standard of Table 15. A disease development degree was calculated from the above expression 2. A protective value (%) was calculated from the above expression 3 and evaluated according to the standard of Table 16.

For `Cc1cc(COC(=O)c2cc(C)ns2)sn1` [Comparative compound, reference compound], the Evaluation result in data set [1] was “C (protective value: less than 80.0% to 50.0% or more)”; with Pyricularia oryzae it was “D (protective value: less than 50.0%)”; in the data set with Stagonospora nodorum it was “D (protective value: less than 25%)”. The figures for the Protective value (in data set [1]; with Pyricularia oryzae) were 73.3% and 45.9%, respectively.

Take `O=C(OCc1snc(Cl)c1Cl)c1ccccc1[N+](=O)[O-]` [II-55]: the results for the Evaluation result in the data set on Pyricularia oryzae and in the data set on Stagonospora nodorum were “A (protective value: 100% to 90.0% or more)” and “A (protective value: 100% to 75% or more)”, respectively. In the data set with Pyricularia oryzae, this compound registered a Protective value of 98.8%.

Consider `COc1cccc(OC)c1C(=O)OCc1snc(Cl)c1Cl` [II-79], for which the Evaluation result was “A (protective value: 100% to 90.0% or more)” in the data set with Pyricularia oryzae and “A (protective value: 100% to 75% or more)” with Stagonospora nodorum. Moreover, the Protective value in the data set with Pyricularia oryzae amounted to 92.3%.

For the compound `Cc1cccc([N+](=O)[O-])c1C(=O)OCc1snc(Cl)c1Cl` [II-82], the Evaluation entry in the data set on Pyricularia oryzae is “B (protective value: less than 90.0% to 80.0% or more)”; with Stagonospora nodorum it was “A (protective value: 100% to 75% or more)”. The compound also gave a Protective value in the data set on Pyricularia oryzae of 88.0%.

For the compound `O=C(OCc1snc(Cl)c1Cl)c1ccccc1Cl` [II-14], in the data set with Pyricularia oryzae, the Evaluation result is “A (protective value: 100% to 90.0% or more)” and the Protective value was 92.4%. Moreover, the Evaluation result with Stagonospora nodorum was “B (protective value: less than 75% to 50% or more)”.

As for `CC(=S)OCc1snc(Cl)c1Cl` [I-28, (3,4-dichloroisothiazol-5-yl)methyl thioacetate], in the data set on Pyricularia oryzae, the Evaluation entry is “C (protective value: less than 80.0% to 50.0% or more)” and the Protective value stood at 79.9%.

In the case of `Cc1cccc(C)c1C(=O)OCc1snc(Cl)c1Cl` [II-77], the Evaluation entry is reported as “C (protective value: less than 80.0% to 50.0% or more)” in the data set on Pyricularia oryzae and “A (protective value: 100% to 75% or more)” in the data set on Stagonospora nodorum. In the data set on Pyricularia oryzae, this compound displayed a Protective value of 74.1%.

On to `Cc1ccccc1C(=O)OCc1snc(Cl)c1Cl` [II-5], for which, in the data set on Pyricularia oryzae, the Evaluation result is “A (protective value: 100% to 90.0% or more)” and the Protective value is on record as 94.6%. Also, the Evaluation result in the data set with Stagonospora nodorum is “A (protective value: 100% to 75% or more)”.

On to `CC=CC=CC(=O)OCc1snc(Cl)c1Cl` [I-24], for which the results for the Evaluation entry (in data set [1]; with Pyricularia oryzae) were “B (protective value: less than 90.0% to 80.0% or more)” and “A (protective value: 100% to 90.0% or more)”, respectively. The Protective value stood at 89.1% in data set [1] and 95.2% in the data set with Pyricularia oryzae.

`O=C(OCc1snc(Cl)c1Cl)c1ccccc1` [II-1, (3,4-dichloroisothiazol-5-yl)methyl benzoate] had a melting point of 79 to 80 °C. Besides, in data set [1], the Evaluation entry was “B (protective value: less than 90.0% to 80.0% or more)” and the Protective value is 89.1%. In the data set on Pyricularia oryzae, the Evaluation entry was “A (protective value: 100% to 90.0% or more)” and the Protective value is on record as 92.3%.

As to `COC(=O)c1ccccc1C(=O)OCc1snc(Cl)c1Cl` [II-24], the Evaluation entry with Pyricularia oryzae was “A (protective value: 100% to 90.0% or more)”; with Stagonospora nodorum, “A (protective value: 100% to 75% or more)”. The compound also gave a Protective value in the data set on Pyricularia oryzae of 98.3%.

In the case of `CC(=O)OCc1snc(Cl)c1Cl` [I-1], in data set [1], the Evaluation entry was “B (protective value: less than 90.0% to 80.0% or more)” and the Protective value was determined as 86.9%. Moreover, in the data set on Pyricularia oryzae, the Evaluation result is recorded as “A (protective value: 100% to 90.0% or more)” and the Protective value is given as 96.1%.

As for `COc1ccccc1C(=O)OCc1snc(Cl)c1Cl` [II-57], in the data set on Pyricularia oryzae, the Evaluation entry was “A (protective value: 100% to 90.0% or more)” and the Protective value came out at 98.4%. For the same compound, the Evaluation entry with Stagonospora nodorum is on record as “A (protective value: 100% to 75% or more)”.

As to `CS(=O)(=O)c1ccccc1C(=O)OCc1snc(Cl)c1Cl` [II-66], in the data set with Pyricularia oryzae, the Evaluation result is given as “A (protective value: 100% to 90.0% or more)” and the Protective value is 97.8%. For the same compound, the Evaluation result in the data set with Stagonospora nodorum was “A (protective value: 100% to 75% or more)”.

As to `N#Cc1ccccc1C(=O)OCc1snc(Cl)c1Cl` [II-17], in the data set with Pyricularia oryzae, the Evaluation entry is on record as “A (protective value: 100% to 90.0% or more)” and the Protective value is 98.2%.

As to `O=C(OCc1snc(Cl)c1Cl)c1c(Cl)cccc1Cl` [II-78], in the data set with Pyricularia oryzae, the Evaluation entry was “C (protective value: less than 80.0% to 50.0% or more)” and the Protective value worked out at 77.5%. Further, the Evaluation result in the data set on Stagonospora nodorum was “B (protective value: less than 75% to 50% or more)”.
